From PMC12264794, “Homoleptic complexes of titanium(IV) fused with O^N^O Schiff base derivatives: design, BSA–DNA interaction, molecular docking, DFT and cytotoxicity” (RSC Advances, 2025)

Columns and labels:
HeLa cells = test: Flow cytometry cell cycle analysis by PI staining; type: cell-based, human; settings: 48 h, complexes at IC50, cis-platin 5 μM
Description: A flow cytometer was also used to do the apoptotic assessment. HeLa cells (5 × 10^5) were seeded onto 6-well plates using Dulbecco's Modified Eagle Medium paper (DMEM) with 10% FBS. The plates were incubated overnight at 37 °C with 95% air and 5% CO2. […] Following trypsinization, the cells were collected, cleaned with PBS, and fixed for 24 hours at 2–6 °C in ice-cold 70% ethanol. Centrifugation was used to remove the ethanol, and cold PBS was used twice to wash the cell pellets. Later the cells were stained with propidium iodide (PI, 1 mg mL^−1) and incubated for 30 min. Flow cytometric analysis was performed using a FACS scanner and the Becton Dickinson cell search program at 595 nm and the distribution of cells in various cell cycle phases was determined.[69,70]
Through cell cycle analysis, the mechanism of cancer cell death caused by the complexes was evaluated. Anticancer drugs promote growth-inhibitory action in cancer cells by a variety of mechanisms, one of which is dysfunction in the regulation of the cell cycle.[32] For example, cis-platin inhibits DNA transcription in cells by stopping the cell cycle in the S and G2/M phases. PI staining and flow cytometry were used to examine the ability of the complexes to modify the cell cycle (Fig. 19).

CT-DNA = settings: constant used in eqn (6); no reference given; cited from earlier work

SMILES | G0/G1 phase (HeLa cells) [%] | M Phase (HeLa cells) [%] | S Phase (HeLa cells) [%] | Sub-G0 phase (HeLa cells) [%] | KEtBr, DNA binding constant of EB (CT-DNA) [M⁻¹]
N.N.[Cl][Pt][Cl] [Cis-platin, cis-platin, reference compound] | 27.12 | 17.52 | 10.11 | 45.25 | 
CC[n+]1c(-c2ccccc2)c2cc(N)ccc2c2ccc(N)cc21 [EB, ethidium bromide] |  |  |  |  | 1e+07
